# Experimental data reported in patent US8048454B2, “Methods and compositions related to regulation of cytokine production by glycogen synthase kinase 3 (GSK-3)” (priority 2004, dated 2011).
# “Also recorded” adds a separate entry of the source.
# Experiments:
# NF-κB = test: IκB-α degradation and NF-κB p65 phosphorylation, Western blot, LPS-stimulated monocytes; type: cell-based, human; conditions: 10 μM SB216763, 1 μg/ml E. coli LPS
# Experimental: (§1) Human monocytes were pre-treated with medium only or 10 μM of SB216763 and then stimulated for the indicated time points with 1 μg/ml of E. coli LPS. The ability of E. coli LPS in the presence or absence of SB216763 to mediate the degradation and re-synthesis of (A) IκB-α and the phosphorylation of (B) NF-κB p65 (ser 276 or ser 536) were assessed by Western blot. […] The interaction of CBP with (F) NF-κB p65 and (G) CREB after treatment of cells with SB216763 (10 μM) were assessed by immunoprecipitation of CBP and probed for (F) NF-κB or (G) CREB levels by immunoblot. […]
# To investigate the underlying cellular mechanism responsible for the ability of GSK-3 inhibition to suppress the production of pro-inflammatory cytokines while concurrently augmenting the production of the anti-inflammatory cytokine IL-10, the ability of how GSK-3 influenced the activation of downstream transcription factors involved in the inflammatory response was assessed. […] Since GSK-3 can mediate the phosphorylation of the p65 subunit of NF-κB, it was next determined if GSK-3 inhibition was exerting an effect on the phosphorylation status of the p65 subunit of NF-κB. […] Therefore, the nuclear levels of the NF-κB subunits p50 and p65 were analyzed in the presence or absence of the GSK-3 inhibitor SB216763 (FIG. 9C, D). […]
# C57BL/6 mice [1] = test: Endotoxin shock model, survival after LD100 of LPS; type: in vivo, mouse
# Experimental: Mice (sham-injected and LPS groups) were pre-treated with i.p. injection of 1 ml PBS containing 0.01% DMSO (vehicle control). SB216763-treated mice were administered 1 ml of PBS containing 30 μM of SB216763. After 2 h, mice pre-treated with SB216763 (denoted LPS+SB216763) or vehicle (denoted LPS group) were given 150 μg of LPS by i.p., injection. ** and *** indicate statistically significant differences at P<0.01 and P<0.001, respectively, as compared to LPS-treated group. Results represent the mean of 30 mice/group.
# (§2) C57BL/6 mice were bred and maintained within the pathogen-free animal facility at UAB. Experimental endotoxic shock was induced in age- and sex-matched C57BL/6 mice (18 to 23 g) by intraperitoneal injection of 150 μg of LPS in PBS containing 0.1% DMSO. Mice pre-treated with the GSK-3 inhibitor SB216763 received 1 ml of PBS containing 30 μM of SB216763 (DMSO was at 0.01%) by i.p. injection. LPS-control and sham-injected mice were pre-treated (i.p. injection) with 1 ml of PBS containing 0.1% DMSO. Mice given the GSK-3 inhibitor SB216763 after LPS challenge received 1 ml of PBS containing 30 μM of SB216763 (DMSO was at 0.01%) by i.p. injection. LPS-control and sham-injected mice were administered (i.p.) 1 ml of PBS containing 0.01% DMSO. At 4 h after injection, blood from all groups of mice was obtained by retro-orbital plexus bleeding.
# Male C57BL/6 mice (8 to 12 weeks of age; 18 to 23 g) were injected via the intraperitoneal route with an LD100 ([…]) of E. coli K235 LPS in 200 µl of PBS containing 0.1% DMSO. Mice were monitored over a 10 day period for survivability.
# human CD4+ T cells = test: Cytokine production by anti-CD3 stimulated purified CD4+ T cells (ELISA); type: cell-based; conditions: plate-bound anti-CD3 10 μg/ml, 72 h
# Experimental: Supernatants were analyzed for […] (IFN-γ) and Th2- (IL-10) type cytokines by ELISA. […] Thus, inhibition of GSK-3 at the T cell level also suppresses inflammatory cytokines while increasing anti-inflammatory cytokine production. Moreover, inhibition of GSK-3 can enhance Th2-type immune responses while suppressing Th1-type responses.
# C57BL/6 mice [2] = test: In vivo cytokine production in LPS-challenged mice (plasma ELISA); design: species or system mouse; conditions: SB216763 2 h before 150 μg LPS i.p.
# Experimental: SB216763-treated mice were given 1 ml of PBS containing 30 μM of SB216763. Sham-injected and LPS groups were given 1 ml of PBS containing vehicle (0.01% DMSO). After 2 h, mice pre-treated with SB216763 (denoted LPS+SB216763) or vehicle (denoted LPS group) were given 150 μg of LPS by i.p., injection. *** indicates statistically significant differences at P<0.001, as compared to LPS-treated group. Results represent the mean±SD of 10 mice/group.
# as §2
# Human or mouse IL-1β, IL-10, IL-12 p40, and IFN-γ levels in the plasma of mice or cell-culture supernatants were determined by using enzyme-linked immunosorbent assay (ELISA) kits from R&D systems or Ebioscience according to manufacturer's instructions.
# [3] = tested on: NF-κB p50, NF-κB p65, CREB; test: Nuclear NF-κB p50, NF-κB p65 and CREB binding activity (TransAM kit); type: cell-based, human; conditions: SB216763 pre-treatment 1 h; LPS; vs LPS alone
# Experimental: (§3) Human monocytes were pre-treated with medium only or 10 μM of SB216763 and then stimulated for the indicated time points with 1 μg/ml of E. coli LPS. The ability of E. coli LPS in the presence or absence of SB216763 to mediate the degradation and re-synthesis of (A) IκB-α and the phosphorylation of (B) NF-κB p65 (ser 276 or ser 536) were assessed by Western blot. […] The interaction of CBP with (F) NF-κB p65 and (G) CREB after treatment of cells with SB216763 (10 μM) were assessed by immunoprecipitation of CBP and probed for (F) NF-κB or (G) CREB levels by immunoblot. (H) To determine the functional effect of GSK-3 regulating CREB activity in LPS-stimulated monocytes, cells were pre-treated for 96 h with medium only, siRNA targeting CREB, or control siRNA and assayed by Western blot for the levels of CREB and total p38. (I, J) Monocytes pre-treated with medium only, siRNA control, or siRNA targeting CREB for 96 h were stimulated with E. coli LPS for 20 h and cell-free supernatants assayed by ELISA for the levels of (I) IL-10 and (J) IL-12 p40. To ensure equal protein loading, immunoblots were striped and re-probed with total p38 (A, B, H) or total CBP (F, G). For nuclear extract analysis of (C) NF-κB p65, (D) NF-κB p50, and (E) CREB, optical density values were normalized by loading a standardized amount of protein, as indicated in the figure. * indicates statistical significance at P<0.05. For A, B, E, F, G, H, and I, results are representative of 3 separate experiments. For C and D, results represent the mean±SD of 3 separate experiments.
# Human monocytes in 24-well polystyrene tissue culture plates were pretreated for 1 h with SB216763 or 0.01% DMSO and then incubated with medium alone or LPS for the indicated time points. Cells were collected, washed two times in PBS, and then assayed for activity using the TransAM kit specific for the given transcription factor (Active Motif, Carlsbad, Calif.). […]
# human monocytes = test: Cytokine production by E. coli LPS-stimulated monocytes (ELISA); type: cell-based
# Experimental: FIG. 2 The ability of the PI3K pathway to differentially modulate the levels of pro- and anti-inflammatory cytokines is mediated by inhibition of GSK-3. Human monocytes were pre-incubated with medium only, 10 μM SB216763, 10 mM LiCl, 200 nM Azakenpaullone, BIO (50 nM), 1 μM Akt-i, or 20 μM LY294002 for 1 h and then stimulated with 1 μg/ml of E. coli LPS for 20 h. Cell-free supernatants were collected and assessed for (A, C) IL-10, (B, D) IL-12 p40, (E) TNF-α, or (F) IL-6 production by ELISA. * and *** indicates significant differences (P<0.05 and P<0.001, respectively) compared to E. coli LPS stimulated cultures. Results represent the mean±SD of 5 separate experiments.
# (A) Monocytes were pre-treated for 96 h with medium, siRNA targeting GSK-3β, or control siRNA and assayed by Western blot for the levels of total GSK-3β and total p38. (B, C) Monocytes were pre-treated with medium only, siRNA control, or siRNA targeting GSK-3β for 96 h, stimulated with E. coli LPS for 20 h, and cell-free supernatants assayed by ELISA for the levels of (B) IL-10 and (C) IL-12 p40. * indicates significant differences (P<0.05) compared to LPS stimulated cultures. Results represent the mean±SD of 3 separate experiments.
# as §3, with “For nuclear extract analysis of (C) NF-κB p65, (D) NF-κB p50, and (E) CREB, optical density values were normalized by loading a standardized amount of protein, as indicated in the figure. * indicates statistical significance at P<0.05. For A, B, E, F, G, H, and I, results are representative of 3 separate experiments. For C and D, results represent the mean±SD of 3 separate experiments.” left out
# Human or mouse IL-1β, IL-10, IL-12 p40, and IFN-γ levels in the plasma of mice or cell-culture supernatants were determined by using enzyme-linked immunosorbent assay (ELISA) kits from R&D systems or Ebioscience according to manufacturer's instructions. […]
# CBP = test: Co-immunoprecipitation of CBP with NF-κB p65 and CREB; type: cell-based, human; conditions: SB216763 10 μM; LPS-stimulated monocytes
# Experimental: as §1, with “immunoblot. (H) To determine the functional effect of GSK-3 regulating CREB activity in LPS-stimulated monocytes, cells were pre-treated for 96 h with medium only, siRNA targeting CREB, or control siRNA and assayed by Western blot for the levels of CREB and total p38.” for “immunoblot.”
# Moreover, it has been shown that GSK-3 can negatively regulate the activation and nuclear binding properties of CREB. Therefore, it was next determined how GSK-3 inhibition was regulating the ability of nuclear CREB (ser133) to bind its consensus sequence (FIG. 9E). […] Since the levels of CREB binding activity were augmented by GSK-3 inhibition, it was determined if GSK-3 inhibition was affecting the ability of CREB (ser133) and NF-κ p65 (ser276) to associate with CBP by co-immunoprecipitation (FIG. 9F, G).
smiles,measurement,setting,value
Cn1cc(C2=C(c3ccc(Cl)cc3Cl)C(=O)NC2=O)c2ccccc21 [SB216763],rate or extent of degradation or re-synthesis of IκB-α protein,NF-κB,failed to alter
same,level and duration of p65 phosphorylation (ser276 or ser536),NF-κB; vs LPS alone,Neither the level nor duration
same,LPS (endotoxin) lethality (in words),C57BL/6 mice [1]; given 2 h before or 2 h after LD100 of LPS,mediates protection; also recorded: severe attenuation
same,mice survived,"C57BL/6 mice [1]; given 2 hours after LD100 of LPS, 1 ml PBS with 30 μM i.p., 0% in control-treated mice",approximately 55%
same,mice protected from death,"C57BL/6 mice [1]; given 2 hours before LD100 of LPS, 1 ml PBS with 30 μM i.p., 0% in control-treated mice",greater than 70%
same,late deaths among survivors,"C57BL/6 mice [1]; monitored over a 10-day period, both treatment groups",no late deaths
same,levels of IL-10,human CD4+ T cells,significantly enhanced
same,production of IFN-γ,human CD4+ T cells,suppress
same,reduction of systemic levels of several pro-inflammatory cytokines,"C57BL/6 mice [2]; IL-1β, IL-12 p40, IFN-γ, vs LPS-treated controls",more than 50%
same,"in vivo (systemic) levels of IL-1β, IL-12 and IFN-γ (in words)",C57BL/6 mice [2],suppresses; also recorded: profound decrease
same,in vivo levels of IL-10 (in words),C57BL/6 mice [2],enhanced
same,increase of in vivo production of IL-10,C57BL/6 mice [2]; vs LPS-treated controls,more than 2 fold
same,DNA-binding properties of CREB,[3],significant increase
same,nuclear levels of NF-κB p50 able to bind its consensus sequence,[3],did not appear to be influenced
same,nuclear levels of NF-κB p65 able to bind its consensus sequence,[3],did not appear to be influenced
same,IL-10 levels compared to E. coli LPS-treated monocytes (in words),"human monocytes; inhibitor pre-incubation 1 h, 1 μg/ml E. coli LPS 20 h",approximate three-fold increase
same,reduction in IL-12 p40 levels,"human monocytes; inhibitor pre-incubation 1 h, 1 μg/ml E. coli LPS 20 h, vs LPS alone",~80%
same,level of IL-12 p40 in cultures pre-treated with siRNA against CREB (in words),"human monocytes; siRNA against CREB 96 h plus SB216763, LPS",did not appear to be altered
same,IL-10 levels in cells pretreated with siRNA targeting CREB (in words),"human monocytes; siRNA targeting CREB 96 h plus SB216763, LPS, vs LPS stimulated controls",did not exhibit any discernible increase
same,levels of CREB bound to CBP,CBP,potently augmented
same,levels of p65 associated with CBP,CBP,pronounced decrease
